According to paper PMC10141580, “Cyclic Dichalcogenides Extend the Reach of Bioreductive Prodrugs to Harness Thiol/Disulfide Oxidoreductases: Applications to seco-Duocarmycins Targeting the Thioredoxin System” (ACS Central Science, 2023):
Where two headings read alike, the source gives them in different places.

Tests used:
4T1 murine breast cancer = experiment: 4T1 orthotopic breast cancer efficacy study; format: in vivo; settings: 4T1 in Balb/c mice; CBI prodrugs 3 mg/kg
Description: We then moved to in vivo anticancer efficacy trials of these prodrugs. […] As one model we chose the syngeneic murine breast cancer 4T1, implanted orthotopically (at the native tissue site) into the fat pad of immunocompetent Balb/c mice (i.e., offering a realistic immune system and tumor microenvironment). This model gives rapid, aggressive tumor growth.[52] As a second model, we chose to xenograft human BxPC-3 pancreatic adenocarcinoma cells into immunodeficient hosts. This is a slower-growing model, with low metastasis, that can be more resistant to traditional antimitotic therapy.[53],[54] Mice were implanted, randomized once tumors reached 100–150 mm^3 volume, and treated once or twice weekly with prodrug or control compounds typically at 3 mg/kg (8–12 animals per condition, Figure 10a). Tumors were measured by caliper during the assay and weighed at termination.
7. 2. in vivo efficacy mouse studies
4T1 efficacy study BxPC-3 efficacy study a Absolute tumour volumes b Absolute tumour volumes […]
days after tumor implantation days after tumor implantation c Relative tumour volumes d Relative tumour volumes […]
e RTV! fi"al day of followu# f ex viv tumour weights g RTV! fi"al day of followu# h ex viv tumour weights (. mice remain in all *roups) (for animals left at day 31)(all *roups have statistical power)(day "2/ all animals left) […]
vehicle(1x)(1x)(1x) (2x)(2x) […]
P-##"0-#$%-&'%P-!!"0-#$%-&'%P-!!"0-#$%-()%P-!!"0-#$%-&'% %rinotecan %rinotecan P-##"0-#$%-&'%P-!!"0-#$%-()%P-!!"0-#$%-&'%P-!!"0-#$%-&'% P-!!"0-#$%-&'% P-!!"0-#$%-&'% […]
i Body weights $ Body weights […]
implant in Balb/c mice, 8 mice per group; (b, d,g,h,j): BxPC-3 subcutaneous xenograft in NMRi mice, 8 mice per […]
treatment (m e d ia n); (e,g) in vivo caliper measurement of relative tum or volumes at final day of followup [last day when all mice in all groups remain in the study] […]
tumor weights at termination of study (only mice not terminated on ethical grounds before the indicated days were harvested); (i,j) Bodyweights (means).
(BxPC-3 study); dotted vertical lines indicate days of [potential] treatment.

[1] = tested on: Balb/c mice with 4T1 tumors; experiment: 4T1-bearing tolerability study; settings: 10 mg/kg
Description: Finally, another large study intended for antitumor efficacy also had to be examined only in terms of tolerability.
(a,c, e, g, h): BxPC-3 subcutaneous xenograft in NMRi mice, 10 mice per group; ( b, d, f,i ,j): 4T1 murine breast cancer syngeneic orthotopic implant in Balb/c mice,
(a,b) Bodyweights (means); (c, d) absolute tumor volumes (medians); (e,f) tumor volumes relative to individual volumes at start of treatment (medians); (g,h,i ,j) absolute and relative tumor volumes at final day of study (datapoints with means and 95% confidence interval). All tumor measurements are in vivo caliper measurements. Dotted vertical lines indicate days of treatment. All CBI groups dosed at 3 mg/kg i. v., ca . 1 0 0 µL injection volume in vehicle (10:90 DMSO:saline).

HeLa-HRE cells = experiment: Resazurin cytotoxicity assay, HeLa-HRE, 48 h; settings: for IC50(HeLa)/IC50(A549): ratio HeLa vs A549
Description: (§1) We used A549 lung cancer and HeLa cervical cancer cell lines for initial screening of the prodrugs.
HeLa-HRE cells were treated with prodrugs of the
Dose -response curves were calculated from at least 27 incremental single concentrations over a
range of at least three log units.

A549 cells = experiment: Resazurin cytotoxicity assay, A549, 72 h; settings: read-out: IC50(nM): A549
Description: as §1
Fi gure S9: Cell ular resazurin-based cytotoxi ci ty as s a y.
Dose -response curves were calculated from at least 27 incremental single concentrations over a range
of at least three log units. Individual experiments with annotated experiment numbers are shown for each prodrug

[2] = tested on: NCI-60 standardized human tumor cell line panel; experiment: cells; format: cell-based; settings: AZI sheet, read-out: GI50
[3] = Cell-free HPLC reduction assay (GSH or TCEP challenge); settings: 5 mM GSH (50 equiv), 24 h
Description: These performance features had not been tested with naphthols, so we used HPLC to test them and show their reduction-based activation sequence (Figure 2c and Figures S4–S6).
In brief, treatment with the quantitative reductant TCEP triggered a reaction cascade matching the activation sequence we expected (Figure 2c): dichalcogenides are reduced to dichalcogenols that cyclize, giving the naphthol cargos (plus thiol trigger byproduct) that evolve to the activated cyclopropanes (Figure 5).
The mobile phase consists of eluent A: water (analytical
grade, 0.1% formic acid) and eluent B: MeCN (analytical grade, 0.1% formic acid).
using a gradient of 10% B t o 90% B over 10 min.
Reduction assay using TCEP and GSH
tris(2-carboxyethyl)phospine) (TCEP, 5 mM in TE-bu f f e r ) , or reduced glut at hione (GSH, 50 mM in TE-buf f er) or
else blank TE-buffer. Final concentrations: Prodrug (0.1 mM) , TCEP ( 0. 5 mM) , G SH ( 5 mM). The blank sample
was measured after 10 min (“pure”) and 24 h (“O H-“) to control for basic hydrolysis. The GSH sample was
measured after 24 h to control for monothiol-based reductive release. The TCEP sample was measured at several […]
extracted for each of the intermediate species and final r elease products. Peak areas were calculated relative to
the sum of all peak areas at 320 nm to quantify individual species at each timepoints. […]

Balb/c mice = experiment: Single-dose toxicity study; format: in vivo; settings: week following treatment
Description: To test if low prodrug activation could enable in vivo use, we performed dosing and toxicity studies in Balb/c mice, comparing the toxicity and the tolerated dosing of low-reducible SS60-CBI-AZI or substantially reducible SeS60-CBI-AZI and to those of non-reducible carbamate O56-CBI-AZI. Single-dose toxicity was studied over the range 0.1–10 mg/kg.
Methods for in vivo animal studies
All in vivo studies were conducted as contract research together with React ionBiology Eur ope G mbH (Freiburg,
Germany), EPO – Experimental Pharmacology & Oncology GmbH (Berlin, Germany); Bient a/ Enam ine Lt d. (Kyiv,
Ukraine) and Leit at – Managing Technologies (Barcelona, Spain), adhering to the respective animal welfare
Mice were kept in individually ventilated cages at constant temperature (22±2 °C, air-conditioned) and humidity (45
– 65%), under optimum hygienic conditions with 10 – 15 air changes per hour. A cycle of 12 h artificial fluorescent
light ning and 12 h darkness was applied , and animal behavior was monitored daily throughout the studies. The
animals received food and water ad libit um.
To evaluate toxicity of selected compounds, dose level selection studies within dose range from 0.1 mg/kg to
10 mg/kg were performed by intravenous administration into Balb /c mice. […]
were monitored after each drug administration and three times per week for 21 consecutive days after the first […]

[4] = read-out: IC50(nM): HeLa, HeLa, 48 h

In the case of `CCc1c2c(nc3ccc(OC(=O)N4CCC(N5CCCCC5)CC4)cc13)-c1cc3c(c(=O)n1C2)COC(=O)[C@]3(O)CC` [irinotecan, reference compound], the “effect on tumor growth” value (4T1 murine breast cancer) is reported as “expected tumor-slowing effect” and the “effect on tumor growth” value [1] is reported as “failed to slow tumor growth”.
With `CN1CCN(C(=O)Oc2cc3c(c4ccccc24)C(CCl)CN3C(=O)c2cc3cc(OCCCN4CCC4)ccc3[nH]2)C2CSSCC21` (mixture of isomers) [Me-SS66C-CBI-AZI] the “IC50(HeLa)/IC50(A549)” value (HeLa-HRE cells) was 33, the IC50 (HeLa-HRE cells; [4]) was 400 nM and the IC50 (A549 cells) was 12 nM. The GI50 ([2]; 786-0) was 8.8 nM, the GI50 ([2]; A498) was 26 nM and the GI50 ([2]; A549/ATCC) was 5 nM. It also gave a GI50 ([2]; ACHN) of 2 nM, a GI50 ([2]; BT-549) of 54 nM and a GI50 ([2]; CAKI-1) of 8.2 nM. For the same compound, the GI50 ([2]; CCRF-CEM) was 18 nM, the GI50 ([2]; COLO 205) was 22 nM and the GI50 ([2]; DU-145) was 5.3 nM. For the same compound, the GI50 ([2]; EKVX) was 27 nM, the GI50 ([2]; HCC-2998) was 22 nM and the GI50 ([2]; HCT-15) was 11 nM. For the same compound, the GI50 ([2]; HCT-116) was 46 nM, the GI50 ([2]; HL-60(TB)) was 29 nM and the GI50 ([2]; HOP-62) was 9.6 nM. For the same compound, the GI50 ([2]; HOP-92) was 53 nM, the GI50 ([2]; HT29) was 15 nM and the GI50 ([2]; IGROV1) was 6.6 nM. For the same compound, the GI50 ([2]; K-562) was 17 nM, the GI50 ([2]; KM12) was 90 nM and the GI50 ([2]; LOX IMVI) was 3.2 nM. The GI50 ([2]; M14) was 14 nM, the GI50 ([2]; MALME-3M) was 19 nM and the GI50 ([2]; MCF7) was 1.5 nM. For the same compound, the GI50 ([2]; MDA-MB-231) was 37.8 nM, the GI50 ([2]; MDA-MB-435) was 25 nM and the GI50 ([2]; MDA-MB-468) was 5.3 nM. It also gave a GI50 ([2]; MOLT-4) of 14 nM, a GI50 ([2]; NCI-H23) of 4.3 nM and a GI50 ([2]; NCI-H226) of 6.9 nM. The GI50 ([2]; NCI-H460) was 1.6 nM, the GI50 ([2]; NCI-H522) was 28 nM and the GI50 ([2]; OVCAR-3) was 51 nM. The GI50 ([2]; OVCAR-4) was 74 nM, the GI50 ([2]; OVCAR-5) was 23 nM and the GI50 ([2]; OVCAR-8) was 12 nM. For the same compound, the GI50 ([2]; PC-3) was 34 nM, the GI50 ([2]; RPMI-8226) was 35 nM and the GI50 ([2]; RXF 393) was 4.2 nM. It also gave a GI50 ([2]; SF-268) of 20 nM, a GI50 ([2]; SF-295) of 2.1 nM and a GI50 ([2]; SF-539) of 22 nM. It also gave a GI50 ([2]; SK-MEL-2) of 31 nM, a GI50 ([2]; SK-MEL-5) of 19 nM and a GI50 ([2]; SK-MEL-28) of 22 nM. It also gave a GI50 ([2]; SK-OV-3) of 30 nM, a GI50 ([2]; SN12C) of 12 nM and a GI50 ([2]; SNB-19) of 18 nM. It also gave a GI50 ([2]; SR) of 2.7 nM, a GI50 ([2]; SW-620) of 18 nM and a GI50 ([2]; T-47D) of 15 nM. The GI50 ([2]; TK-10) was 36 nM, the GI50 ([2]; U251) was 3.6 nM and the GI50 ([2]; UACC-62) was 4.2 nM. The GI50 ([2]; UACC-257) was 34 nM, the GI50 ([2]; UO-31) was 12 nM and the “release/reduction on GSH challenge” value [3] was “no disulfide reduction/prodrug release was indicated”.
In the case of `O=C(c1cc2cc(OCCCN3CCC3)ccc2[nH]1)N1C[C@@H](CCl)c2c1cc(OCc1ccccc1)c1ccccc21` [OBn-CBI-AZI], the IC50 (HeLa-HRE cells; initial screening, A549 and HeLa cell lines) is reported as greater than 1000 nM, the “IC50(HeLa)/IC50(A549)” value (HeLa-HRE cells) is reported as 1.8 and the IC50 (HeLa-HRE cells; [4]) is reported as 750 nM. For the same compound, the “outcome at 10 mg/kg single dose” value (Balb/c mice) was “not lethal”, the IC50 (A549 cells) was 420 nM and the GI50 ([2]; 786-0) was 270 nM. It also gave a GI50 ([2]; A498) of 380 nM, a GI50 ([2]; A549/ATCC) of 160 nM and a GI50 ([2]; ACHN) of 35 nM. It also gave a GI50 ([2]; CAKI-1) of 190 nM, a GI50 ([2]; CCRF-CEM) of 410 nM and a GI50 ([2]; COLO 205) of 280 nM. For the same compound, the GI50 ([2]; EKVX) was 370 nM, the GI50 ([2]; HCC-2998) was 320 nM and the GI50 ([2]; HCT-15) was 130 nM. For the same compound, the GI50 ([2]; HCT-116) was 640 nM, the GI50 ([2]; HL-60(TB)) was 440 nM and the GI50 ([2]; HOP-62) was 140 nM. It also gave a GI50 ([2]; HOP-92) of 500 nM, a GI50 ([2]; HT29) of 270 nM and a GI50 ([2]; IGROV1) of 190 nM. For the same compound, the GI50 ([2]; K-562) was 250 nM, the GI50 ([2]; KM12) was 810 nM and the GI50 ([2]; LOX IMVI) was 56 nM. It also gave a GI50 ([2]; M14) of 210 nM, a GI50 ([2]; MALME-3M) of 280 nM and a GI50 ([2]; MDA-MB-231) of 3070 nM. The GI50 ([2]; MDA-MB-435) was 330 nM, the GI50 ([2]; MOLT-4) was 270 nM and the GI50 ([2]; NCI-H23) was 73 nM. For the same compound, the GI50 ([2]; NCI-H226) was 210 nM, the GI50 ([2]; NCI-H460) was 17 nM and the GI50 ([2]; NCI-H522) was 380 nM. The GI50 ([2]; OVCAR-3) was 500 nM, the GI50 ([2]; OVCAR-4) was 540 nM and the GI50 ([2]; OVCAR-5) was 340 nM. The GI50 ([2]; OVCAR-8) was 240 nM, the GI50 ([2]; RPMI-8226) was 500 nM and the GI50 ([2]; RXF 393) was 230 nM. For the same compound, the GI50 ([2]; SF-268) was 330 nM, the GI50 ([2]; SF-295) was 46 nM and the GI50 ([2]; SF-539) was 290 nM. For the same compound, the GI50 ([2]; SK-MEL-2) was 370 nM, the GI50 ([2]; SK-MEL-5) was 270 nM and the GI50 ([2]; SK-MEL-28) was 330 nM. For the same compound, the GI50 ([2]; SK-OV-3) was 450 nM, the GI50 ([2]; SN12C) was 360 nM and the GI50 ([2]; SNB-19) was 330 nM. The GI50 ([2]; SR) was 44 nM, the GI50 ([2]; SW-620) was 260 nM and the GI50 ([2]; TK-10) was 560 nM. The GI50 ([2]; U251) was 61 nM, the GI50 ([2]; UACC-62) was 62 nM and the GI50 ([2]; UACC-257) was 390 nM. For the same compound, the GI50 ([2]; UO-31) was 260 nM.
